Values quoted from earlier work in patent US9125953B2, “Halogenated ether complex” (SAPIOTEC GMBH, priority 2010, dated 2015).

In the case of `OC[C@H]1O[C@@H]2O[C@H]3[C@H](O)[C@@H](O)[C@@H](O[C@H]4[C@H](O)[C@@H](O)[C@@H](O[C@H]5[C@H](O)[C@@H](O)[C@@H](O[C@H]6[C@H](O)[C@@H](O)[C@@H](O[C@H]7[C@H](O)[C@@H](O)[C@@H](O[C@H]1[C@H](O)[C@H]2O)O[C@@H]7CO)O[C@@H]6CO)O[C@@H]5CO)O[C@@H]4CO)O[C@@H]3CO` [α-cyclodextrin], the “solubility of unsubstituted α-cyclodextrin in water” value is listed as 14.5 % by weight.
